{"source": "ChEMBL document CHEMBL5233207", "about": "“Medicinal chemistry of the myeloid C-type lectin receptors Mincle, Langerin, and DC-SIGN” (RSC Med Chem, 2021)", "key": {"[1]": {"target": "C-type lectin domain family 4 member K (Homo sapiens, UniProt Q9UJ71)", "sequence (Q9UJ71 whole entry, the tested form may be a part)": "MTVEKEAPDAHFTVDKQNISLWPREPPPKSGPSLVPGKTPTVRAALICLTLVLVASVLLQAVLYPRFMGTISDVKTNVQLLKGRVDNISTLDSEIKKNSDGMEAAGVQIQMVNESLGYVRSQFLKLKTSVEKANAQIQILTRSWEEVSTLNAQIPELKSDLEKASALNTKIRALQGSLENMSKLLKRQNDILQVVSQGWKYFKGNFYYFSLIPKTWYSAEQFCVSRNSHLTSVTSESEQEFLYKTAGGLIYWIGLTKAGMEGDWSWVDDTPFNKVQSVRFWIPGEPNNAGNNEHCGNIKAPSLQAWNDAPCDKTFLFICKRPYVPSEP", "test": "Binding affinity to Langerin (unknown origin) by [19F] R2-filtered NMR assay"}, "[2]": {"target": "T1, C-type lectin domain family 4 member M (Homo sapiens) (UniProt Q9H2X3)", "T1 sequence (whole entry)": "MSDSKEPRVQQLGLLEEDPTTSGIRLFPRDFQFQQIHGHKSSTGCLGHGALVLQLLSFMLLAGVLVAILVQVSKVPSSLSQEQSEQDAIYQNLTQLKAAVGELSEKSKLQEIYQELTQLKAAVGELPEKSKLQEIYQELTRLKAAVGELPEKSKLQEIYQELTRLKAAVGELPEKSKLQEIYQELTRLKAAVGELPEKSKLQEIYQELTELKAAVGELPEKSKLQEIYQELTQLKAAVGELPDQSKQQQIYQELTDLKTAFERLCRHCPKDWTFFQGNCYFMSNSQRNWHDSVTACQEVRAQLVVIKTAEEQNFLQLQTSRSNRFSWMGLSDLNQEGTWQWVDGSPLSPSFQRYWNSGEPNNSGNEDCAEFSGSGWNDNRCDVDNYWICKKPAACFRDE", "test": "Inhibition of DC-SIGN (unknown origin)- mediated fluorescent probe binding at 0.1 mM relative to control"}, "[3]": {"target": "T1, C-type lectin domain family 4 member M (Homo sapiens)", "test": "Inhibition of DC-SIGN (unknown origin)- mediated fluorescent probe binding at 1 mM relative to control"}, "[4]": {"target": "T2, C-type lectin domain family 4 member K (Mus musculus, UniProt Q8VBX4)", "T2 sequence (Q8VBX4 whole entry)": "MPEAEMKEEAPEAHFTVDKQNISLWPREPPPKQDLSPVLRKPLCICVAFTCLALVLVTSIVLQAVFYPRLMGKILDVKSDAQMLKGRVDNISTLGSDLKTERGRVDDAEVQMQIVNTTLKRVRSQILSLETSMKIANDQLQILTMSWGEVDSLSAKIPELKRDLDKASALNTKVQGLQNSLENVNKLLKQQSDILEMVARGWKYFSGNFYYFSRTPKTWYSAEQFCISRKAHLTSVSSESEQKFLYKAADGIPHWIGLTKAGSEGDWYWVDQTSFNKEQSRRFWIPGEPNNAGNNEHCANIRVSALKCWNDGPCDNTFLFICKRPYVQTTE", "test": "Inhibition of mannan binding to mouse Langerin extracellular domain by ELLA assay"}, "[5]": {"target": "T2, C-type lectin domain family 4 member K", "test": "Inhibition of mannan binding to mouse Langerin extracellular domain assessed as apparent dissociation constant by ELLA assay", "conditions": "read-out: Kd(app)"}, "Ebolavirus": {"system": "Ebolavirus", "test": "Antiviral activity against envelope pseudotyped Ebola virus in human Jurkat cells expressing DC-SIGN assessed as inhibition of viral infection", "assay_type": "functional, organism-based"}, "[6]": {"system": "Human immunodeficiency virus 1", "test": "Antiviral activity against HIV-1 in human CD4+Th cells expressing DC-SIGN assessed as inhibition of viral infection", "assay_type": "functional, organism-based", "conditions": "Human immunodeficiency virus 1, CD4+ve Th"}, "[7]": {"test": "Inhibition of DC-SIGN (unknown origin)/ SARS CoV-2 spike glycoprotein interaction"}}, "note": "Counter-ions that a name gives are not always drawn."}
{"smiles": "C#CCO[C@H]1O[C@H](CO)[C@@H](O)[C@H](O)[C@@H]1NC(C)=O", "values": [{"measurement": "Ki", "setting": "[1]", "result": 48, "unit": "mM"}]}
{"smiles": "NS(=O)(=O)c1ccc(CCCC2Nc3ccc(C(=O)N4CCN(c5ccncc5)CC4)cc3NC2=O)cc1", "note": "(stereo unspecified)", "values": [{"measurement": "inhibition", "setting": "[2]", "result": 79, "unit": "%"}, {"measurement": "inhibition", "setting": "[3]", "result": 92, "unit": "%"}]}
{"smiles": "CC(=O)NCCO[C@@H]1O[C@H](CO)[C@@H](O)[C@H](O)[C@H]1NS(=O)(=O)c1ccc(C)cc1", "values": [{"measurement": "Ki", "setting": "[1]", "result": 0.32, "unit": "mM"}]}
{"smiles": "C#CCO[C@H]1O[C@H](CO)[C@@H](O)[C@H](O)[C@@H]1NC(=O)CS(=O)(=O)O", "values": [{"measurement": "Ki", "setting": "[1]", "result": 1.3, "unit": "mM"}]}
{"smiles": "O=C(NCCc1cn2c(n1)SCC2)c1cnc2sccn2c1=O", "values": [{"measurement": "IC50", "setting": "[4]", "result": 50, "unit": "µM"}, {"measurement": "Kd", "setting": "[5]", "result": 450, "unit": "µM"}]}
{"smiles": "C#CCO[C@H]1O[C@H](CO)[C@@H](O)[C@H](O)[C@@H]1NC(=O)Cc1nnn[nH]1", "values": [{"measurement": "Ki", "setting": "[1]", "result": 7.6, "unit": "mM"}]}
{"smiles": "[N-]=[N+]=NCCO[C@H]1C[C@H](C(=O)NCc2ccc(CO)cc2)[C@@H](C(=O)NCc2ccc(CO)cc2)C[C@@H]1O[C@H]1O[C@H](CO)[C@@H](O)[C@H](O)[C@@H]1O", "values": [{"measurement": "IC50", "setting": "Ebolavirus; Orthoebolavirus, Jurkat", "result": "< 60", "unit": "nM"}, {"measurement": "IC50", "setting": "[6]", "result": 24, "unit": "nM"}]}
{"smiles": "NC(=O)c1ccc(CCCC2Nc3ccc(C(=O)N4CCN(c5ncccn5)CC4)cc3NC2=O)cc1", "note": "(stereo unspecified)", "values": [{"measurement": "inhibition", "setting": "[2]", "result": 53, "unit": "%"}, {"measurement": "inhibition", "setting": "[3]", "result": 77, "unit": "%"}]}
{"smiles": "N[C@H]1C(O)O[C@H](CO)[C@@H](O)[C@@H]1O", "note": "(stereo partly specified) [GLUCOSAMINE SULFATE]", "values": [{"measurement": "Ki", "setting": "[1]", "result": 1.4, "unit": "mM"}]}
{"smiles": "O=C(NCc1ccc(CO)cc1)[C@H]1C[C@H](OCCn2cc(COCCC(CCOCCn3cc(-c4cc(OCCOCCO)c(C#Cc5cc(OCCOCCO)c(C#Cc6cc(OCCOCCO)c(-c7cn(CCOCCC(CCOCc8cn(CCO[C@H]9C[C@H](C(=O)NCc%10ccc(CO)cc%10)[C@@H](C(=O)NCc%10ccc(CO)cc%10)C[C@@H]9O[C@H]9O[C@H](CO)[C@@H](O)[C@H](O)[C@@H]9O)nn8)(CCOCc8cn(CCO[C@H]9C[C@H](C(=O)NCc%10ccc(CO)cc%10)[C@@H](C(=O)NCc%10ccc(CO)cc%10)C[C@@H]9O[C@H]9O[C@H](CO)[C@@H](O)[C@H](O)[C@@H]9O)nn8)CCOCc8cn(CCO[C@H]9C[C@H](C(=O)NCc%10ccc(CO)cc%10)[C@@H](C(=O)NCc%10ccc(CO)cc%10)C[C@@H]9O[C@H]9O[C@H](CO)[C@@H](O)[C@H](O)[C@@H]9O)nn8)nn7)cc6OCCOCCO)cc5OCCOCCO)cc4OCCOCCO)nn3)(CCOCc3cn(CCO[C@H]4C[C@H](C(=O)NCc5ccc(CO)cc5)[C@@H](C(=O)NCc5ccc(CO)cc5)C[C@@H]4O[C@H]4O[C@H](CO)[C@@H](O)[C@H](O)[C@@H]4O)nn3)CCOCc3cn(CCO[C@H]4C[C@H](C(=O)NCc5ccc(CO)cc5)[C@@H](C(=O)NCc5ccc(CO)cc5)C[C@@H]4O[C@H]4O[C@H](CO)[C@@H](O)[C@H](O)[C@@H]4O)nn3)nn2)[C@@H](O[C@H]2O[C@H](CO)[C@@H](O)[C@H](O)[C@@H]2O)C[C@@H]1C(=O)NCc1ccc(CO)cc1", "values": [{"measurement": "IC50", "setting": "[7]", "result": 9.6, "unit": "µM"}]}
{"smiles": "COC(=O)[C@H]1C[C@H](OCCN)[C@@H](O[C@H]2O[C@H](CO)[C@@H](O)[C@H](O)[C@@H]2O)C[C@@H]1C(=O)OC", "values": [{"measurement": "IC50", "setting": "Ebolavirus; jurkat", "result": "< 60", "unit": "nM"}, {"measurement": "IC50", "setting": "[6]", "result": 24, "unit": "nM"}]}
